{
  "source": "paper PMC11672637",
  "about": "“7-O-Carboxylic Acid-Substituted 3-O-Alkyl Difluoroquercetin; An Aztreonam-Potentiating Agent Against Carbapenemase-Producing Pseudomonas aeruginosa Through Simultaneous Inhibition of Metallo-β-Lactamase and Efflux Pump” (Antibiotics, 2024)",
  "format_in_all_cases": "cell-based, P. aeruginosa",
  "key": {"PA-033, blaNDM": {"system": "PA-033, blaNDM", "test": "MIC / checkerboard with ATM", "set-up": "key to Susceptibility category: S: susceptible; I: intermediate; R: resistant", "details": "for MIC: Pseudomonas aeruginosa"}, "PA-026, blaNDM": {"system": "PA-026, blaNDM", "test": "MIC / checkerboard with ATM", "set-up": "key to Susceptibility category: S: susceptible; I: intermediate; R: resistant"}, "PA-027, blaIMP": {"system": "PA-027, blaIMP", "test": "MIC / checkerboard with ATM", "set-up": "key to Susceptibility category: S: susceptible; I: intermediate; R: resistant", "details": "for MIC: Pseudomonas aeruginosa"}, "PA-035, blaGES": {"system": "PA-035, blaGES", "test": "MIC / checkerboard with ATM", "set-up": "key to Susceptibility category: S: susceptible; I: intermediate; R: resistant", "details": "for MIC: Pseudomonas aeruginosa"}, "[1]": {"system": "ATM-Susceptible CPPA (n = 11)", "test": "MIC distribution over clinical isolates", "details": "Pseudomonas aeruginosa"}, "PA-031, blaNDM": {"system": "PA-031, blaNDM", "test": "MIC / checkerboard with ATM", "set-up": "key to Susceptibility category: S: susceptible; I: intermediate; R: resistant", "details": "for MIC: Pseudomonas aeruginosa"}, "All CPPA (n = 26)": {"system": "All CPPA (n = 26)", "test": "MIC distribution over clinical isolates", "details": "Pseudomonas aeruginosa"}, "PA-044, blaNDM": {"system": "PA-044, blaNDM", "test": "MIC / checkerboard with ATM", "set-up": "key to Susceptibility category: S: susceptible; I: intermediate; R: resistant"}, "PA-042, blaIMP/NDM": {"system": "PA-042, blaIMP/NDM", "test": "MIC / checkerboard with ATM", "set-up": "key to Susceptibility category: S: susceptible; I: intermediate; R: resistant", "details": "for MIC: Pseudomonas aeruginosa"}, "PA-036, blaNDM": {"system": "PA-036, blaNDM", "test": "MIC / checkerboard with ATM", "set-up": "key to Susceptibility category: S: susceptible; I: intermediate; R: resistant", "details": "PA-036"}, "PA-014, blaGES": {"system": "PA-014, blaGES", "test": "MIC / checkerboard with ATM", "set-up": "key to Susceptibility category: S: susceptible; I: intermediate; R: resistant"}, "PA-002, blaIMP": {"system": "PA-002, blaIMP", "test": "MIC / checkerboard with ATM", "set-up": "key to Susceptibility category: S: susceptible; I: intermediate; R: resistant", "details": "for MIC: Pseudomonas aeruginosa"}, "[2]": {"details": "read-out: MIC50 of ATM, 5 at 0 mg/L"}, "[3]": {"details": "read-out: MIC90 of ATM, 5 at 0 mg/L"}},
  "note": "Like-named read-outs stand apart in the source and are kept apart here.",
  "data": [
    {"smiles": "C[C@H]1[C@H](NC(=O)/C(=N\\OC(C)(C)C(=O)O)c2csc(N)n2)C(=O)N1S(=O)(=O)O", "note": "[ATM, aztreonam]", "values": [
      {"measurement": "Susceptibility to ATM", "setting": "PA-033, blaNDM; PA-033, ATM alone", "value": "S (S (sensitive, MIC ≤ 8 mg/L))"},
      {"measurement": "Susceptibility category", "setting": "PA-033, blaNDM; PA-033, Table S2", "value": "S"},
      {"measurement": "MIC", "setting": "PA-033, blaNDM; PA-033, Table S2, read-out: MIC value", "value": 2, "unit": "µg/mL"},
      {"measurement": "MIC", "setting": "PA-033, blaNDM; read-out: MIC of ATM, PA-033, ATM alone (5 at 0 mg/L)", "value": 2, "unit": "µg/mL"},
      {"measurement": "Susceptibility to ATM", "setting": "PA-026, blaNDM; PA-026, ATM alone", "value": "S (S (sensitive, MIC ≤ 8 mg/L))"},
      {"measurement": "Susceptibility category", "setting": "PA-026, blaNDM; PA-026, Table S2", "value": "S"},
      {"measurement": "MIC", "setting": "PA-026, blaNDM; Pseudomonas aeruginosa, read-out: MIC of ATM, PA-026, ATM alone (5 at 0 mg/L)", "value": 8, "unit": "µg/mL"},
      {"measurement": "Susceptibility to ATM", "setting": "PA-027, blaIMP; PA-027, ATM alone", "value": "R (R (resistant, MIC ≥ 32 mg/L))"},
      {"measurement": "Susceptibility category", "setting": "PA-027, blaIMP; PA-027, Table S2", "value": "R"},
      {"measurement": "MIC", "setting": "PA-027, blaIMP; PA-027, Table S2, read-out: MIC value", "value": 32, "unit": "µg/mL"},
      {"measurement": "MIC", "setting": "PA-027, blaIMP; read-out: MIC of ATM, PA-027, ATM alone (5 at 0 mg/L)", "value": 32, "unit": "µg/mL"},
      {"measurement": "Susceptibility to ATM", "setting": "PA-035, blaGES; PA-035, ATM alone", "value": "S (S (sensitive, MIC ≤ 8 mg/L))"},
      {"measurement": "Susceptibility category", "setting": "PA-035, blaGES; PA-035, Table S2", "value": "S"},
      {"measurement": "MIC", "setting": "PA-035, blaGES; PA-035, Table S2, read-out: MIC value", "value": 8, "unit": "µg/mL"},
      {"measurement": "MIC", "setting": "PA-035, blaGES; read-out: MIC of ATM, PA-035, ATM alone (5 at 0 mg/L)", "value": 8, "unit": "µg/mL"},
      {"measurement": "MIC50", "setting": "[1]; [2]", "value": 4, "unit": "µg/mL"},
      {"measurement": "MIC90", "setting": "[1]; [3]", "value": 8, "unit": "µg/mL"},
      {"measurement": "Susceptibility to ATM", "setting": "PA-031, blaNDM; PA-031, ATM alone", "value": "S (S (sensitive, MIC ≤ 8 mg/L))"},
      {"measurement": "Susceptibility category", "setting": "PA-031, blaNDM; PA-031, Table S2", "value": "S"},
      {"measurement": "MIC", "setting": "PA-031, blaNDM; PA-031, Table S2, read-out: MIC value", "value": 8, "unit": "µg/mL"},
      {"measurement": "MIC", "setting": "PA-031, blaNDM; read-out: MIC of ATM, PA-031, ATM alone (5 at 0 mg/L)", "value": 4, "unit": "µg/mL"},
      {"measurement": "MIC50", "setting": "All CPPA (n = 26); [2]", "value": 16, "unit": "µg/mL"},
      {"measurement": "MIC90", "setting": "All CPPA (n = 26); [3]", "value": 32, "unit": "µg/mL"},
      {"measurement": "Susceptibility to ATM", "setting": "PA-044, blaNDM; PA-044, ATM alone", "value": "I (I (intermediate, MIC = 16 mg/L))"},
      {"measurement": "Susceptibility category", "setting": "PA-044, blaNDM; PA-044, Table S2", "value": "I"},
      {"measurement": "MIC", "setting": "PA-044, blaNDM; Pseudomonas aeruginosa, read-out: MIC of ATM, PA-044, ATM alone (5 at 0 mg/L)", "value": 16, "unit": "µg/mL"},
      {"measurement": "Susceptibility to ATM", "setting": "PA-042, blaIMP/NDM; PA-042, ATM alone", "value": "S (S (sensitive, MIC ≤ 8 mg/L))"},
      {"measurement": "Susceptibility category", "setting": "PA-042, blaIMP/NDM; PA-042, Table S2", "value": "S"},
      {"measurement": "MIC", "setting": "PA-042, blaIMP/NDM; PA-042, Table S2, read-out: MIC value", "value": 2, "unit": "µg/mL"},
      {"measurement": "MIC", "setting": "PA-042, blaIMP/NDM; read-out: MIC of ATM, PA-042, ATM alone (5 at 0 mg/L)", "value": 2, "unit": "µg/mL"},
      {"measurement": "Susceptibility to ATM", "setting": "PA-036, blaNDM; ATM alone", "value": "I (I (intermediate, MIC = 16 mg/L))"},
      {"measurement": "Susceptibility category", "setting": "PA-036, blaNDM; Table S2", "value": "I"},
      {"measurement": "Susceptibility to ATM", "setting": "PA-014, blaGES; PA-014, ATM alone", "value": "I (I (intermediate, MIC = 16 mg/L))"},
      {"measurement": "Susceptibility category", "setting": "PA-014, blaGES; PA-014, Table S2", "value": "I"},
      {"measurement": "MIC", "setting": "PA-014, blaGES; Pseudomonas aeruginosa, read-out: MIC of ATM, PA-014, ATM alone (5 at 0 mg/L)", "value": 16, "unit": "µg/mL"},
      {"measurement": "Susceptibility to ATM", "setting": "PA-002, blaIMP; PA-002, ATM alone", "value": "R (R (resistant, MIC ≥ 32 mg/L))"},
      {"measurement": "Susceptibility category", "setting": "PA-002, blaIMP; PA-002, Table S2", "value": "R"},
      {"measurement": "MIC", "setting": "PA-002, blaIMP; PA-002, Table S2, read-out: MIC value", "value": 32, "unit": "µg/mL"},
      {"measurement": "MIC", "setting": "PA-002, blaIMP; read-out: MIC of ATM, PA-002, ATM alone (5 at 0 mg/L)", "value": 32, "unit": "µg/mL"}
    ]}
  ]
}
